Experimental data reported in PubChem BioAssay (NCI).
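In this assay, cells in 96-well plates receive the compound at five concentrations for 48 hours. Endpoints are linearly interpolated between the surrounding concentrations. At the GI50, growth is halved. TGI denotes the concentration required for complete inhibition of growth.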

Key:
Test in all cases: inhibition of tumour cell growth, NCI panel, 48 h
786-0 renal = test system: 786-0 renal
A498 renal = test system: A498 renal
A549 NSCLC = test system: A549 NSCLC
ACHN renal = test system: ACHN renal
BT-549 breast = test system: BT-549 breast
CCRF-CEM leukemia = test system: CCRF-CEM leukemia
COLO 205 colon = test system: COLO 205 colon
DU-145 prostate = test system: DU-145 prostate
EKVX NSCLC = test system: EKVX NSCLC
HCC-2998 colon = test system: HCC-2998 colon
HCT-116 colon = test system: HCT-116 colon
HCT-15 colon = test system: HCT-15 colon
HL-60(TB) leukemia = test system: HL-60(TB) leukemia
HOP-62 NSCLC = test system: HOP-62 NSCLC
HOP-92 NSCLC = test system: HOP-92 NSCLC
HS 578T breast = test system: HS 578T breast
HT29 colon = test system: HT29 colon
IGROV1 ovarian = test system: IGROV1 ovarian
KM12 colon = test system: KM12 colon
LOX IMVI melanoma = test system: LOX IMVI melanoma
M14 melanoma = test system: M14 melanoma
MALME-3M melanoma = test system: MALME-3M melanoma
MCF7 breast = test system: MCF7 breast
MDA-MB-231 breast = test system: MDA-MB-231 breast
MDA-MB-435 = test system: MDA-MB-435
MOLT-4 leukemia = test system: MOLT-4 leukemia
NCI-H226 lung = test system: NCI-H226 lung
NCI-H23 lung = test system: NCI-H23 lung
NCI-H460 lung = test system: NCI-H460 lung
NCI-H522 lung = test system: NCI-H522 lung
NCI/ADR-RES ovarian = test system: NCI/ADR-RES ovarian
OVCAR-3 ovarian = test system: OVCAR-3 ovarian
OVCAR-4 ovarian = test system: OVCAR-4 ovarian
OVCAR-5 ovarian = test system: OVCAR-5 ovarian
OVCAR-8 ovarian = test system: OVCAR-8 ovarian
PC-3 prostate = test system: PC-3 prostate
RPMI-8226 leukemia = test system: RPMI-8226 leukemia
RXF 393 renal = test system: RXF 393 renal
SF-268 CNS = test system: SF-268 CNS
SF-295 CNS = test system: SF-295 CNS
SF-539 CNS = test system: SF-539 CNS
SK-MEL-2 melanoma = test system: SK-MEL-2 melanoma
SK-MEL-28 melanoma = test system: SK-MEL-28 melanoma
SK-MEL-5 melanoma = test system: SK-MEL-5 melanoma
SK-OV-3 ovarian = test system: SK-OV-3 ovarian
SN12C renal = test system: SN12C renal
SNB-19 CNS = test system: SNB-19 CNS
SNB-75 CNS = test system: SNB-75 CNS
SR leukemia = test system: SR leukemia
SW-620 colon = test system: SW-620 colon
T-47D breast = test system: T-47D breast
TK-10 renal = test system: TK-10 renal
U251 CNS = test system: U251 CNS
UACC-257 melanoma = test system: UACC-257 melanoma
UACC-62 melanoma = test system: UACC-62 melanoma
UO-31 renal = test system: UO-31 renal

## CC(C)CNCC(O)COc1ccc(C(C)(C)c2ccc(OCC(O)CNCC(C)C)cc2)cc1 (configuration not stated)
786-0 renal
  GI50: 1.5 µM
  TGI: 3.03 µM
A498 renal
  GI50: 11.3 µM
  TGI: 25.1 µM
A549 NSCLC
  GI50: 2.08 µM
  TGI: 4.84 µM
ACHN renal
  GI50: 1.82 µM
  TGI: 3.41 µM
BT-549 breast
  GI50: 7.82 µM
  TGI: 21 µM
CCRF-CEM leukemia
  GI50: 2.38 µM
  TGI: 6.18 µM
COLO 205 colon
  GI50: 1.59 µM
  TGI: 3.24 µM
DU-145 prostate
  GI50: 2.46 µM
  TGI: 7.49 µM
EKVX NSCLC
  GI50: 3.78 µM
  TGI: 17.8 µM
HCC-2998 colon
  GI50: 2.02 µM
  TGI: 4.26 µM
HCT-116 colon
  GI50: 1.79 µM
  TGI: 3.59 µM
HCT-15 colon
  GI50: 2.2 µM
  TGI: 7.35 µM
HL-60(TB) leukemia
  GI50: 1.86 µM
  TGI: 3.76 µM
HOP-62 NSCLC
  GI50: 2.92 µM
  TGI: 11.7 µM
HOP-92 NSCLC
  GI50: 1.48 µM
  TGI: 9.17 µM
HS 578T breast
  GI50: 5 µM
  TGI: 21.9 µM
HT29 colon
  GI50: 1.62 µM
  TGI: 3.26 µM
IGROV1 ovarian
  GI50: 3.66 µM
  TGI: 15.5 µM
KM12 colon
  GI50: 2.38 µM
  TGI: 7.41 µM
LOX IMVI melanoma
  GI50: 1.57 µM
  TGI: 3.04 µM
M14 melanoma
  GI50: 1.76 µM
  TGI: 3.43 µM
MALME-3M melanoma
  GI50: 1.71 µM
  TGI: 3.32 µM
MCF7 breast
  GI50: 1.73 µM
  TGI: 3.48 µM
MDA-MB-231 breast
  GI50: 1.5 µM
  TGI: 3.25 µM
MDA-MB-435
  GI50: 1.73 µM
  TGI: 3.29 µM
MOLT-4 leukemia
  GI50: 2.03 µM
  TGI: 5.16 µM
NCI-H226 lung
  GI50: 8.27 µM
  TGI: 26.2 µM
NCI-H23 lung
  GI50: 11.7 µM
  TGI: 25.5 µM
NCI-H460 lung
  GI50: 1.97 µM
  TGI: 4.11 µM
NCI-H522 lung
  GI50: 1.87 µM
  TGI: 3.82 µM
NCI/ADR-RES ovarian
  GI50: 7.63 µM
  TGI: 21.4 µM
OVCAR-3 ovarian
  GI50: 1.92 µM
  TGI: 4.15 µM
OVCAR-4 ovarian
  GI50: 6.52 µM
  TGI: 21.4 µM
OVCAR-5 ovarian
  GI50: 6.1 µM
  TGI: 20.2 µM
OVCAR-8 ovarian
  GI50: 2.01 µM
  TGI: 4.42 µM
PC-3 prostate
  GI50: 2.3 µM
  TGI: 7.02 µM
RPMI-8226 leukemia
  GI50: 1.88 µM
  TGI: 4.42 µM
RXF 393 renal
  GI50: 1.66 µM
  TGI: 3.67 µM
SF-268 CNS
  GI50: 3.9 µM
  TGI: 17.4 µM
SF-295 CNS
  GI50: 2.36 µM
  TGI: 6.68 µM
SF-539 CNS
  GI50: 1.71 µM
  TGI: 3.23 µM
SK-MEL-2 melanoma
  GI50: 1.81 µM
  TGI: 3.57 µM
SK-MEL-28 melanoma
  GI50: 1.8 µM
  TGI: 3.69 µM
SK-MEL-5 melanoma
  GI50: 1.68 µM
  TGI: 3.05 µM
SK-OV-3 ovarian
  GI50: 4.09 µM
  TGI: 15.3 µM
SN12C renal
  GI50: 4.82 µM
  TGI: 18.3 µM
SNB-19 CNS
  GI50: 3.15 µM
  TGI: 10.9 µM
SNB-75 CNS
  GI50: 4 µM
  TGI: 18.2 µM
SR leukemia
  GI50: 2.02 µM
  TGI: 4.39 µM
SW-620 colon
  GI50: 1.72 µM
  TGI: 3.46 µM
T-47D breast
  GI50: 1.63 µM
  TGI: 3.63 µM
TK-10 renal
  GI50: 2.03 µM
  TGI: 5.32 µM
U251 CNS
  GI50: 1.55 µM
  TGI: 2.91 µM
UACC-257 melanoma
  GI50: 1.73 µM
  TGI: 3.26 µM
UACC-62 melanoma
  GI50: 1.82 µM
  TGI: 3.4 µM
UO-31 renal
  GI50: 1.53 µM
  TGI: 2.89 µM
